Results reported in PMC11620503 (Antimicrobial Agents and Chemotherapy, 2024).
Converted amounts (≈) assume the structure as drawn. Like-named read-outs stand apart in the source and are kept apart here.

Assays:
[1] = system: isolates of E. coli with NDM and PBP3 mutations; experiment: MIC, broth microdilution; type: cell-based; settings: Escherichia coli, read-out: median MICs
[2] = system: Bacteroides fragilis ATCC 25285; experiment: MIC, agar dilution, reference strains of anaerobic bacteria; type: cell-based; settings: ATCC25285
[3] = target: CTX-M-14 (Escherichia coli, UniProt Q9L5C7); experiment: Ki app determination (Waley's method)
[4] = Free concentration of KSP-1007 at the dose effective in the infection models; type: in vivo, mouse; settings: 30 mg/kg of KSP-1007; data not shown
[5] = target: OXA-23 (Acinetobacter baumannii, UniProt Q9L4P2); experiment: Ki app determination (Waley's method)
[6] = target: NDM-7 (Klebsiella pneumoniae, UniProt C7C422, D130N/M154L); experiment: Ki app determination (Waley's method)
[7] = target: KPC-38 (Klebsiella pneumoniae, UniProt Q9F663); experiment: Ki app determination (Waley's method); settings: read-out: Ki app, means from three independent studies
[8] = target: class D carbapenemases, OXAs from Acinetobacter spp., and OXA-48; experiment: Ki app determination, range over enzymes; settings: read-out: Ki app, range; range over OXAs from Acinetobacter spp. and OXA-48
[9] = system: Prevotella buccae KUB2992; experiment: MIC, agar dilution, reference strains of anaerobic bacteria; type: cell-based; settings: Segatella buccae
[10] = target: VIM-1 (Pseudomonas aeruginosa, UniProt A0A0F7KYQ8); experiment: Ki app determination (Waley's method)
[11] = target: OXA-72 (Acinetobacter baumannii, UniProt Q5XQU0); experiment: Ki app determination (Waley's method)
[12] = system: Bacteroides thetaiotaomicron KUB2984; experiment: MIC, agar dilution, reference strains of anaerobic bacteria; type: cell-based
[13] = target: NDM-6 (Klebsiella pneumoniae, UniProt C7C422, A233V); experiment: Ki app determination (Waley's method)
[14] = system: Clostridioides difficile ATCC 700057; experiment: MIC, agar dilution, reference strains of anaerobic bacteria; type: cell-based; settings: ATCC700057
[15] = target: OXA-66 (Acinetobacter baumannii, UniProt Q58XD2); experiment: Ki app determination (Waley's method)
[16] = system: Atopobium rimae KUB3014; experiment: MIC, agar dilution, reference strains of anaerobic bacteria; type: cell-based; settings: Lancefieldella rimae
[17] = system: Clostridioides difficile ATCC 43255; experiment: as above; type: cell-based; settings: ATCC43255
[18] = system: Prevotella histicola KUB2989; experiment: as above; type: cell-based
[19] = system: the other seven anaerobic strains; experiment: Intrinsic antibacterial activity, MIC agar dilution; type: cell-based
Procedure: MICs were determined by the broth microdilution method and agar dilution method (for anaerobic bacteria only) according to CLSI ([37], [38]). When investigating the effect of HSA on the MICs, CAMHB with 4% HSA (FUJIFILM Wako Pure Chemical Corporation) was used. […] The MBC was defined as the lowest drug concentration at which ≥99.9% of the original inoculum was killed.

[20] = Intrinsic antibacterial activity, MIC; type: cell-based
[21] = system: Peptostreptococcus anaerobius ATCC 27337; experiment: MIC, agar dilution, reference strains of anaerobic bacteria; type: cell-based; settings: ATCC27337
[22] = target: SHV-5 (Klebsiella pneumoniae, UniProt P0A3M1); experiment: Ki app determination (Waley's method)
[23] = system: Bacteroides fragilis KUB2982; experiment: MIC, agar dilution, reference strains of anaerobic bacteria; type: cell-based
[24] = system: Clostridioides difficile ATCC BAA-1870; experiment: as above; type: cell-based; settings: ATCCBAA1870
[25] = system: Clostridioides difficile ATCC BAA-1803; experiment: as above; type: cell-based; settings: ATCCBAA1803
[26] = system: Actinomyces odontolyticus ATCC 17929; experiment: as above; type: cell-based; settings: Schaalia odontolytica, ATCC17929
[27] = system: Clostridium perfringens ATCC 13124; experiment: microbe, parasite or virus in culture; type: cell-based; settings: ATCC13124
[28] = system: Enterobacterales (154), CDC AR Bank; experiment: MIC, broth microdilution; type: cell-based
[29] = system: P. aeruginosa CDC-90 (KPC-5); experiment: Lethal mouse model of systemic infection; settings: Pseudomonas aeruginosa, in Mus musculus, sc, read-out: ED50 of MEM (95% confidence intervals)
[30] = system: A. baumannii CDC-303 (OXA-23, 66); experiment: Lethal mouse model of systemic infection; settings: Acinetobacter baumannii, in Mus musculus, sc, read-out: ED50 of MEM, extrapolated from the probit analysis
[31] = system: Klebsiella pneumoniae ATCC BAA-2344 (KPC-2); experiment: Lethal mouse model of systemic infection; settings: ATCCBAA2344, in Mus musculus
[32] = system: Serine-carbapenemase-producing Enterobacterales (6); experiment: MIC and MBC testing; type: cell-based; settings: 6 serine-carbapenemase-producing Enterobacterales; fixed BLI concentration (μg/mL) in label
[33] = system: E. coli ATCC BAA-2469 (NDM-1); experiment: MIC, broth microdilution; type: cell-based, Escherichia coli
[34] = CLSI breakpoints, marked c: breakpoints for β-lactam alone
[35] = fixed concentration (μg/mL) in label

OXA-23, sequence (Q9L4P2 18-273): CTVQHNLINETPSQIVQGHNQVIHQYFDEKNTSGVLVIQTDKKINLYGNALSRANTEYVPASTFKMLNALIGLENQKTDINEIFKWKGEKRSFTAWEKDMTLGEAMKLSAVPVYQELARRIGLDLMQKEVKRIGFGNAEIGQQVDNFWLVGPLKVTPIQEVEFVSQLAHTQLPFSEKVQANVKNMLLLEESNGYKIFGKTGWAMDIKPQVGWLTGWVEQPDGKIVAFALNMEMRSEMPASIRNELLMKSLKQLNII
OXA-66, sequence (Q58XD2 entry or part of it): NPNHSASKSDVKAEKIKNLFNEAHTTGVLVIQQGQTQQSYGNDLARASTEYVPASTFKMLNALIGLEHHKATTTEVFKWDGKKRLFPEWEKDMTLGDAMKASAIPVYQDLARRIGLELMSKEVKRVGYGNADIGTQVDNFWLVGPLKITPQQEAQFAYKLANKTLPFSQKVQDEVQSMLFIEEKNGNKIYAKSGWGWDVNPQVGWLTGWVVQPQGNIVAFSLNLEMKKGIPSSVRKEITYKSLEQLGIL
SHV-5, sequence (P0A3M1 22-286): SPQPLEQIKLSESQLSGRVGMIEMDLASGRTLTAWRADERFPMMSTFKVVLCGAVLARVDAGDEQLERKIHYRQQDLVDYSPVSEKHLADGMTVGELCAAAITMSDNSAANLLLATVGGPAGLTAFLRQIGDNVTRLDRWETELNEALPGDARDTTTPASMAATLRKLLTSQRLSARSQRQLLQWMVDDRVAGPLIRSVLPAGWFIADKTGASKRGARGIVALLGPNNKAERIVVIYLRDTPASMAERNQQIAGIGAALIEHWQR
NDM-7, sequence (C7C422 29-270 D130N/M154L): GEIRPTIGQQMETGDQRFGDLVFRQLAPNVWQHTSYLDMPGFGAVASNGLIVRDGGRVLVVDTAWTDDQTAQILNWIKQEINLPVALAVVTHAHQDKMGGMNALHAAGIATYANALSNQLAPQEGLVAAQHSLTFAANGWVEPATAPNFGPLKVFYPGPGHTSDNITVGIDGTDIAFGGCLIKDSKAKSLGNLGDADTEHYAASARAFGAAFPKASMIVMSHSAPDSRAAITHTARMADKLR
KPC-38, sequence (Q9F663 25-293 limits assumed): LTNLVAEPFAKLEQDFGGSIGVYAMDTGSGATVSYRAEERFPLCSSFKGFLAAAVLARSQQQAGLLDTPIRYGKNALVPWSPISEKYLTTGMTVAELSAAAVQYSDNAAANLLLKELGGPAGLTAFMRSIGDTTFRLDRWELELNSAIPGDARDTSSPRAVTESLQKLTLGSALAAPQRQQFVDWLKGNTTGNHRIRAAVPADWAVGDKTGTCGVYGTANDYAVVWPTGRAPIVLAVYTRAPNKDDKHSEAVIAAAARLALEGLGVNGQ
OXA-72, sequence (Q5XQU0 entry or part of it): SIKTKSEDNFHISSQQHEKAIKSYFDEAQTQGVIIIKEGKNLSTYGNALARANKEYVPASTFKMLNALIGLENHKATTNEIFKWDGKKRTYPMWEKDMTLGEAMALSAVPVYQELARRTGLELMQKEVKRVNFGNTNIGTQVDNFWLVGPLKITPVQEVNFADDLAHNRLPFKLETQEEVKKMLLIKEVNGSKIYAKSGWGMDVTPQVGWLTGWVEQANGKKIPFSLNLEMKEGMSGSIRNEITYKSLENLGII
NDM-6, sequence (C7C422 29-270 A233V): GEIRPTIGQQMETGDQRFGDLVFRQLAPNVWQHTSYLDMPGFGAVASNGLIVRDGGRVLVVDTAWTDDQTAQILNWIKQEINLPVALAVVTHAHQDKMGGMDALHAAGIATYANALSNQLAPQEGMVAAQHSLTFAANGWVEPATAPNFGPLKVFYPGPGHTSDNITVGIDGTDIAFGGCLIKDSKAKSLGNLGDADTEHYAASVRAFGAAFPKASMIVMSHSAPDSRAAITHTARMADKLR
CTX-M-14, sequence (Q9L5C7 29-291, species assumed): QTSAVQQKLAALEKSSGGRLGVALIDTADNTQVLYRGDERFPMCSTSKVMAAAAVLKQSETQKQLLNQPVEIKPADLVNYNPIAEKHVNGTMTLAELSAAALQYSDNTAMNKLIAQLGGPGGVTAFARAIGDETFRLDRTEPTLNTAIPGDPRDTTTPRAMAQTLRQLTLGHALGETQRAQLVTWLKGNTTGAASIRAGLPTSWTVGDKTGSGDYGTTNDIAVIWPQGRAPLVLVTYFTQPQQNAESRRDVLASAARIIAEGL

SMILES: CC(C)(O/N=C(\C(=O)N[C@@H]1C(=O)N2C(C(=O)[O-])=C(C[N+]3(CCNC(=O)c4ccc(O)c(O)c4Cl)CCCC3)CS[C@H]12)c1csc(N)n1)C(=O)O [FDC, cefiderocol]
- MIC [1]: 4 µg/mL (≈ 5.32 µM)

SMILES: N[C@@H](C(=O)N1CC(Oc2ccc3c(c2C(=O)O)OB(O)CC3)C1)c1c[nH]cn1 [KSP-1007, 7-({1-[(2R)-2-amino-2-(1H-imidazol-4-yl)acetyl]azetidin-3-yl}oxy)-2-hydroxy-3,4-dihydro-2H-1,2-benzoxaborinine-8-carboxylic acid]
- MIC [2]: 8 µg/mL (≈ 20.7 µM)
- Ki [3]: 0.153 ± 0.0235 nM
- free concentration [4]: exceeded 8 µg/mL
- Ki [5]: 4.07 ± 0.237 nM
- Ki [6]: 53 ± 30.2 nM
- Ki [7]: 0.836 ± 0.414 nM
- Ki [8]: 0.621 to 5.78 nM
- MIC [9]: 8 µg/mL (≈ 20.7 µM)
- Ki [10]: 350 ± 45.4 nM
- Ki [11]: 0.621 ± 0.0248 nM
- MIC [12]: 32 µg/mL (≈ 82.9 µM)
- Ki [13]: 1050 nM
- MIC [14]: > 256 µg/mL
- Ki [15]: 5.78 ± 0.654 nM
- MIC [16]: 8 µg/mL (≈ 20.7 µM)
- MIC [17]: > 256 µg/mL
- MIC [18]: 8 µg/mL (≈ 20.7 µM)
- MIC [19]: > 256 µg/mL
- MIC [20]: ≥ 64 µg/mL
- MIC [21]: > 256 µg/mL
- Ki [22]: 127 ± 16 nM
- MIC [23]: 16 µg/mL (≈ 41.4 µM)
- MIC [24]: > 256 µg/mL
- MIC [25]: > 256 µg/mL
- MIC [26]: 256 µg/mL (≈ 663 µM)
- MIC [27]: 2 µg/mL (≈ 5.18 µM)

SMILES: C[C@@H](O)[C@H]1C(=O)N2C(C(=O)O)=C(S[C@@H]3CN[C@H](C(=O)N(C)C)C3)[C@H](C)[C@H]12 [MEM, meropenem]
- CLSI MIC interpretation I (intermediate) [28, 34]: 9.7%
- CLSI MIC interpretation R (resistant) [28, 34]: 50%
- CLSI MIC interpretation S (susceptible) [28, 34]: 40.3%
- MIC50 [28, 35]: 2 µg/mL (≈ 5.22 µM)
- MIC90 [28, 35]: 32 µg/mL (≈ 83.4 µM)
- ED50 [29]: 54.8 mg/kg
- ED50 [30]: 6550 mg/kg
- ED50 ([31]; read-out: ED50 of MEM (95% confidence intervals), K. pneumoniae ATCC BAA-2344, Experiment 1, single sc dose 2 h after ip inoculation, survival day 7, dose ratio in label): 205 mg/kg
- ED50 ([31]; read-out: ED50 of MEM (95% confidence intervals), K. pneumoniae ATCC BAA-2344, Experiment 2, single sc dose 2 h after ip inoculation, survival day 7, dose ratio in label): 54.8 mg/kg
- MIC Range [32]: 1 to 64 µg/mL
- MIC ([33]; Escherichia coli, ATCCBAA2469, Experiment 1, agent alone, read-out: MIC): 32 µg/mL (≈ 83.4 µM)
- MIC ([33]; Experiment 2, agent alone): 32 µg/mL (≈ 83.4 µM)
